# Where two headings read alike, the source gives them in different places.
# Target: T1, TYK2 (Homo sapiens, UniProt P29597)
# T1 construct: Degradation of TYK2 in cells was quantitatively measured using Meso Scale Discovery (MSD) technology; endogenous in cells; host or cells: OCI-LY10
# Assay: TYK2 MSD degradation in OCI-LY10 cells
# Assay type: cell-based
# Details: 4 to 24 hours incubation; for DC50: read-out: TYK2 MSD OCI-LY10 Rel-DC50
# Description: Example 7. TYK2 MSD Degradation
# Degradation of TYK2 in cells was quantitatively measured using Meso Scale Discovery (MSD) technology. OCI-LY10 cells were seeded in 96-well plates with a density of 0.4 million cells per well in 100 μl fresh media. Compounds were then added to the assay plates with a final top concentration of 1 to 10 μM in a 1:3 dilution series with total of 9 doses. The assay plates were then incubated for 4 to 24 hours at 37° C. under […]. The assay plates were then centrifuged for 5 minutes, and the cell pellets were treated with 100 μl/well RIPA lysis buffer (Boston Bioproducts, BP-115D) with protease and phosphatase inhibitors (Roche, 05892791001 and 04906837001). To prepare MSD assay plates (MSD, L15XA), the plates were coated with the capture antibody (Santa Cruz Biotechnology, SC-5271) in PBS, at 40 μl/well. The plates were then incubated overnight at 4° C., washed 3 times with 150 μl/well TBST buffer (Cell Signaling Technology, 9997S) and blocked with 150 μl/well blocking buffer (MSD, R93BA-4). Cell lysates were then added to MSD assay plates and the plates were incubated at room temperature for 1 hour. The plates were then washed 3 times with 150 μl/well TBST buffer and 25 μl/well primary detection antibody (Cell Signaling Technology, #9312). The assay plates were then incubated at room temperature for 1 hour, washed 3 times with 150 μl/well TBST buffer, and 25 μl/well secondary detection antibody, SULFO-TAG anti-rabbit antibody (MSD, R32AB-1) were added. The assay plates were then incubated at room temperature for 1 hour, washed 3 times with 150 μl/well TB ST buffer, and 150 μl/well MSD reading buffer (MSD, R92TC-2) were added. The plates were then analyzed by an MSD reader. The data was analyzed by GraphPad Prism and the dose dependent TYK2 degradation was fit using the four-parameter inhibitor vs. response nonlinear regression.
# The letter codes for TYK2 DC50 include: A (<1 nM); B (i to <10 nM); C (10 to 100 nM); D (>100 nM); and E (not tested). The letter codes for TYK2 Dmax % include: A (>90%); B (90 to >75%); C (75 to 50%); D (<50%); and E (not tested).
# [1] = TYK2 degradation in OCI-LY10 cells
# T1 sequence (P29597 whole entry): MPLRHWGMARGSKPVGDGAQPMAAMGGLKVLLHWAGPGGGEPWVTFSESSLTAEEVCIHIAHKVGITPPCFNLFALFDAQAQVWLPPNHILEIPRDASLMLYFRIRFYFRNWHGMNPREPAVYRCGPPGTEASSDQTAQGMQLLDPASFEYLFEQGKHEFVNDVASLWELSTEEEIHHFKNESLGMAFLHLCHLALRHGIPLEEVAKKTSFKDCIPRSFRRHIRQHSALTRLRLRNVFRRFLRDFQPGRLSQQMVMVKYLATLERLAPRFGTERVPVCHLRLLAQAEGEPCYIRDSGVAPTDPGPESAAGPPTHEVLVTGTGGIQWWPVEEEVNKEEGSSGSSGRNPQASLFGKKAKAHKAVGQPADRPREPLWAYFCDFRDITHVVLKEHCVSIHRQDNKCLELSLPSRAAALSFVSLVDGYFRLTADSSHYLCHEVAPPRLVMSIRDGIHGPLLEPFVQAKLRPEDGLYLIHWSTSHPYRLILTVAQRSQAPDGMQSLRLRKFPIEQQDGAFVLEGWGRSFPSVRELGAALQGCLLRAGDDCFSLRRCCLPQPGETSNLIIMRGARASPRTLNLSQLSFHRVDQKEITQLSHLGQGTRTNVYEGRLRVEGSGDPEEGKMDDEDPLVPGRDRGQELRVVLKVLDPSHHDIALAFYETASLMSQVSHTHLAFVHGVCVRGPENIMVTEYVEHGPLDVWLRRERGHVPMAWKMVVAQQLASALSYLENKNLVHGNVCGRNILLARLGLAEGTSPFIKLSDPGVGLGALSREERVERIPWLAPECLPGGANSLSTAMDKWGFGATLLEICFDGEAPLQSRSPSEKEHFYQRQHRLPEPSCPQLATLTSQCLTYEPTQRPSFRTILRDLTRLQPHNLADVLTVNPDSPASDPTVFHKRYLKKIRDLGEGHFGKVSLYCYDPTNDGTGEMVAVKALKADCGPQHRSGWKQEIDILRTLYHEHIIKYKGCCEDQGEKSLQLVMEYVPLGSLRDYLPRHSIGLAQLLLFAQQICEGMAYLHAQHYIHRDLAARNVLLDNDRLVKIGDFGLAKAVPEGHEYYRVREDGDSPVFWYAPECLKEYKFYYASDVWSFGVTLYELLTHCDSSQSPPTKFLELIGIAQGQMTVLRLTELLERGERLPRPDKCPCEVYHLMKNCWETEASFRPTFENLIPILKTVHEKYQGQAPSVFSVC
Compound,TYK2 MSD OCI-LY10 Dmax % [1],DC50 [1] [nM],TYK2 MSD OCI-LY10 Dmax % (OCI-LY10 cells),DC50 (OCI-LY10 cells) [nM],Dmax [1] [%]
CNc1cc(N2CC3(CCN(CC4CCN(c5ccc6c(c5)n(C)c(=O)n6C5CCC(=O)NC5=O)CC4)CC3)c3ccccc32)nn2c(C(=O)NC3CC3)cnc12 (stereo not drawn) [I-24],D (D (<50%)),> 100,,,
CNc1cc(N2CCc3c(-c4ccc(CN5CC6(CCN(C(=O)c7cc(C)c(Cl)c(N8CCC(=O)NC8=O)c7)CC6(F)F)C5)c(C)n4)cccc32)nn2c(C(=O)N[C@@H]3C[C@@H]3F)cnc12 [I-966],B (B (90 to >75%)),< 10,,,
CNc1cc(N2CCc3c(CN4CCC(N5CCC6(CCN(c7ccc8c(c7)n(C)c(=O)n8C7CCC(=O)NC7=O)CC6)CC5)C(F)(F)C4)cccc32)nn2c(C(=O)NC3CC3)cnc12 (stereo not drawn) [I-19],B (B (90 to >75%)),< 10,,,
CNc1cc(N2CCc3c(CN4CCC(N5CCC6(CCN(C(=O)c7cc(C)c(Cl)c(N8CCC(=O)NC8=O)c7)CC6)CC5)C(F)(F)C4)cc(F)cc32)nn2c(C(=O)N[C@@H]3CC[C@H]3OC)cnc12 (stereo partly drawn) [I-1114],A (A (>90%)),< 1,,,
CNc1cc(N2CCc3c(-c4ccc(CN5CCC6(CCN(C(=O)c7cc(F)c(C)c(N8CCC(=O)NC8=O)c7)CC6)C(F)(F)C5)cn4)cccc32)nn2c(C(=O)N[C@@H]3C[C@@H]3F)cnc12 [I-657],,,A (A (>90%)),< 1,
CNc1cc(N2CCc3c(-c4ncc(CN5CC6(CCN(C(=O)c7cc(N8CCC(=O)NC8=O)c(Cl)cn7)CC6(F)F)C5)cc4F)cc(F)cc32)nn2c(C(=O)N[C@@H]3CC[C@H]3OC)cnc12 [I-1149],A (A (>90%)),< 1,,,
CNc1cc(N2CCc3c2cccc3C23CC(CN4CCC(N5CC(N6CCN(c7cccc8c7n(C)c(=O)n8C7CCC(=O)NC7=O)CC6)C5)C(F)(F)C4)(C2)C3)nn2c(C(=O)N[C@@H]3C[C@@H]3F)cnc12 (stereo partly drawn) [I-429],,,B (B (90 to >75%)),< 10,
CNC(=O)c1cnc(Nc2ccc(C(=O)NCCOCCOCCOCCOCCN(C(=O)C3CCCN(c4cncc5ccccc45)C3)c3ccc(=O)n(CC(=O)O)c3)cn2)cc1Nc1cccc(-c2ncccn2)c1OC (stereo not drawn) [I-920],D (D (<50%)),> 100,,,
CNc1cc(N2CCc3c(N4CC(CN5CCC(N6CCC7(CCN(C(=O)c8ccc(Cl)c(N9CCC(=O)NC9=O)c8)CC7)CC6)C(F)(F)C5)C4)cccc32)nn2c(C(=O)N[C@@H]3C[C@@H]3F)cnc12 (stereo partly drawn) [I-785],,,B (B (90 to >75%)),< 10,
CNc1cc(N2CCc3c(CN4CCC(N5CCC6(CCN(C(=O)c7cc(N8CCC(=O)NC8=O)c(Cl)cc7F)CC6)CC5)C(F)(F)C4)cccc32)nn2c(C(=O)N[C@@H]3CC[C@H]3OC)cnc12 (stereo partly drawn) [I-1084],A (A (>90%)),< 1,,,
CNc1cc(N2CCc3c(CN4CCC(N5CC(N6CCN(c7cccc8c7n(C)c(=O)n8C7CCC(=O)NC7=O)CC6)C5)C(F)(F)C4)cccc32)nn2c(C(=O)N[C@@H]3C[C@@H]3F)cnc12 (stereo partly drawn) [I-471],,,B (B (90 to >75%)),< 1,
CNc1cc(N2CCc3c(N4CCC5(CCN(C(=O)c6ccc(Cl)c(N7CCC(=O)NC7=O)c6)CC5)CC4)cccc32)nn2c(C(=O)N[C@@H]3C[C@@H]3F)cnc12 [I-93],D (D (<50%)),< 10,,,
CNc1cc(N2CCc3c(-c4ccc(CN5CCC(N6CCC(C#Cc7ccc8c(c7)n(C)c(=O)n8C7CCC(=O)NC7=O)CC6)C(F)(F)C5)cn4)cccc32)nn2c(C(=O)N[C@H]3C[C@H]3F)cnc12 (stereo partly drawn) [I-86],C (C (75 to 50%)),< 10,,,
"CNc1cc(N2CCc3c(-c4ncc(CN5CC6(CCN(C(=O)c7cc(Cl)c(C)c(N8CCC(=O)NC8=O)c7)CC6(F)F)C5)cc4F)cccc32)nn2c(C(=O)N[C@@H]3C[C@@H]3F)cnc12 [I-1008, 6-(4-(5-((7-(3-chloro-5-(2,4-dioxotetrahydropyrimidin-1(2H)-yl)-4-methylbenzoyl)-5,5-difluoro-2,7-diazaspiro[3.5]nonan-2-yl)methyl)-3-fluoropyridin-2-yl)indolin-1-yl)-N-((1R,2S)-2-fluorocyclopropyl)-8-(methylamino)imidazo[1,2-b]pyridazine-3-carboxamide]",,< 1,,,> 90
CNc1cc(N2CCc3c(-c4ccc(N5CCC6(CCN(C(=O)c7ccc(Cl)c(N8CCC(=O)NC8=O)c7)CC6)CC5)cn4)cccc32)nn2c(C(=O)N[C@@H]3C[C@@H]3F)cnc12 [I-249],D (D (<50%)),> 100,,,
CNc1cc(N2CCc3c(-c4ncc(CN5CC6(CCN(C(=O)c7ccc(Cl)c(N8CCC(=O)NC8=O)c7)CC6)C5)cn4)cccc32)nn2c(C(=O)N[C@@H]3C[C@@H]3F)cnc12 [I-250],B (B (90 to >75%)),< 1,,,
CNc1cc(N2CCc3c(CN4CCC(N5CCC(N6CCN(C(=O)c7ccc(Cl)c(N8CCC(=O)NC8=O)c7)CC6)C5)C(F)(F)C4)cccc32)nn2c(C(=O)N[C@@H]3C[C@@H]3F)cnc12 (stereo partly drawn) [I-803],A (A (>90%)),< 1,,,
CNc1cc(N2CCc3c(C4CCCN(CC5CN(c6ccc7c(c6)n(C)c(=O)n7C6CCC(=O)NC6=O)C5)C4)cccc32)nn2c(C(=O)NC3CC3)cnc12 (stereo not drawn) [I-45],C (C (75 to 50%)),< 1,,,
CNc1cc(N2CCc3c(CN4CCC(N5CC(N6CCN(c7cccn8c(N9CCC(=O)NC9=O)cnc78)CC6)C5)C(F)(F)C4)cccc32)nn2c(C(=O)N[C@@H]3C[C@@H]3F)cnc12 (stereo partly drawn) [I-904],A (A (>90%)),< 1,,,
CNc1cc(N2CCc3c(CN4CCC(N5CC(N6CCN(c7cccc8c(N9CCC(=O)NC9=O)nn(C)c78)CC6)C5)C(F)(F)C4)cccc32)nn2c(C(=O)N[C@@H]3C[C@@H]3F)cnc12 (stereo partly drawn) [I-903],B (B (90 to >75%)),< 10,,,
CNc1cc(N2CCc3c(-c4cc(CN5CCN(c6ccc7c(c6F)n(C)c(=O)n7C6CCC(=O)NC6=O)CC5)ccn4)cccc32)nn2c(C(=O)NC3CC3)cnc12 (stereo not drawn) [I-71],B (B (90 to >75%)),< 1,,,
CNc1cc(N2CCc3c(-c4ccc(CN5CC6(C5)CN(C(=O)c5ccc(Cl)c(N7CCC(=O)NC7=O)c5)C6)cn4)cccc32)nn2c(C(=O)NC3CC3F)cnc12 (stereo not drawn) [I-295],D (D (<50%)),< 10,,,
CNc1cc(N2CCc3c(CCN4CCC(N5CCC6(CCN(C(=O)c7ccc(Cl)c(N8CCC(=O)NC8=O)c7)CC6)CC5)C(F)(F)C4)cccc32)nn2c(C(=O)NC3CC3F)cnc12 (stereo not drawn) [I-687],,,B (B (90 to >75%)),< 1,
CNc1cc(N2CCc3c(-c4ccc(CN5CC6(CCN(C(=O)c7ccc(C)c(N8CCC(=O)NC8=O)c7)CC6)C5)cn4)cccc32)nn2c(C(=O)N[C@@H]3C[C@@H]3F)cnc12 [I-63],A (A (>90%)),< 1,,,
CNc1cc(-c2cccc(N3CCN(Cc4ccc5c(c4)n(C)c(=O)n5C4CCC(=O)NC4=O)CC3)n2)nn2c(C(=O)NC3CC3)cnc12 (stereo not drawn) [I-198],D (D (<50%)),> 100,,,
CNc1cc(N2CCc3c(-c4ccc(CN5CCC6(CC5)CCN(c5cccc7c5n(C)c(=O)n7C5CCC(=O)NC5=O)CC6)cn4)cccc32)nn2c(C(=O)NC3CC3)cnc12 (stereo not drawn) [I-54],C (C (75 to 50%)),< 10,,,
CNc1cc(N2CCc3c(CC4CCN(C5CCC6(CC5)CCN(C(=O)c5ccc(Cl)c(N7CCC(=O)NC7=O)c5)CC6)CC4(F)F)cccc32)nn2c(C(=O)N[C@@H]3C[C@@H]3F)cnc12 (stereo partly drawn) [I-686],,,B (B (90 to >75%)),< 10,

# Source: patent publication US20260125400A1, “TYK2 DEGRADERS AND USES THEREOF” (Kymera Therapeutics, Inc., priority 2023, published 2026)
